Laboratory results reported in the NIST ThermoML archive (doi:10.1021/je101146f).

Legend:
[1] = Ring tensiometer
[2] = xn = mol fraction of the nth substance listed; details: Ring tensiometer

CCn1cc[n+](C)c1.O=S(=O)([N-]S(=O)(=O)C(F)(F)F)C(F)(F)F
[1]
Details	surface tension liquid-gas [mN/m]
293.15 K	36.14
298.15 K	35.9
303.13 K	35.56
308.15 K	35.35
313.15 K	35.1

CCn1cc[n+](C)c1.O=S(=O)([N-]S(=O)(=O)C(F)(F)F)C(F)(F)F + C1CCOC1
surface tension liquid-gas [mN/m], [2]
Details	x1 = 0.1037	x1 = 0.2024	x1 = 0.3255	x1 = 0.3841	x1 = 0.4425	x1 = 0.5469	x1 = 0.6863	x1 = 0.7697	x1 = 0.9177	x1 = 1
293.15 K	28.72	29.94	31.05	31.62	32.12	32.98	34.07	34.55	35.65	36.14
298.15 K	28.1	29.42	30.62	31.18	31.76	32.63	33.81	34.38	35.46	35.9
303.13 K	27.52	28.84	30.18	30.82	31.41	32.39	33.52	34.15	35.22	35.56
308.15 K	26.88	28.33	29.84	30.52	31.07	32.08	33.26	33.92	34.98	35.35

CCn1cc[n+](C)c1.O=S(=O)([N-]S(=O)(=O)C(F)(F)F)C(F)(F)F + CC#N
surface tension liquid-gas [mN/m], [2]
Details	x1 = 0.0533	x1 = 0.1886	x1 = 0.337	x1 = 0.4724	x1 = 0.652	x1 = 0.8245	x1 = 0.924	x1 = 1
293.15 K	30.48	32.72	34.02	34.77	35.38	35.83	35.98	36.14
298.15 K	29.8	32.1	33.55	34.42	35.11	35.6	35.76	35.9
303.13 K	29.26	31.63	33.15	33.99	34.8	35.29	35.5	35.56
308.15 K	28.65	31.16	32.78	33.61	34.49	34.99	35.22	35.35
313.15 K	28.04	30.69	32.36	33.28	34.2	34.75	35	35.1

CC#N [acetonitrile]
[1]
Details	surface tension liquid-gas [mN/m]
293.15 K	28.95
298.15 K	28.37
303.13 K	27.66
308.15 K	27.03
313.15 K	26.43

CC#N [acetonitrile] + CCn1cc[n+](C)c1.O=S(=O)([N-]S(=O)(=O)C(F)(F)F)C(F)(F)F
[2], x2 = 0
Details	surface tension liquid-gas [mN/m]
293.15 K	28.95
298.15 K	28.37
303.13 K	27.66
308.15 K	27.03
313.15 K	26.43

C1CCOC1 [tetrahydrofuran]
[1]
Details	surface tension liquid-gas [mN/m]
293.15 K	27.31
298.15 K	26.68
303.13 K	26.04
308.15 K	25.38

C1CCOC1 [tetrahydrofuran] + CCn1cc[n+](C)c1.O=S(=O)([N-]S(=O)(=O)C(F)(F)F)C(F)(F)F
[2], x2 = 0
Details	surface tension liquid-gas [mN/m]
293.15 K	27.31
298.15 K	26.68
303.13 K	26.04
308.15 K	25.38
